Test results: US20230094922A1, “METHODS OF THERAPEUTIC PROGNOSTICATION” (GENETIKAPLUS LTD., priority 2020, published 2023)

Key:
[1] = system: iPSC-derived cortical neurons; test: Pre- and post-synaptic marker (Synapsin, PSD95) puncta and colocalization imaging analysis; type: cell-based, human; settings: for intact synapses (colocalization of pre- and post-synaptic terminals), treated vs untreated: 7 days after treatment (Bupropion also 3 days)
Method: (§1) iPSC differentiation into neurons-iPSCs were seeded at a density of 3×10^6 cells/well on a hESC-qualified Matrigel pre-coated 6-well plate and incubated at 37° C., 5% CO2 overnight. Differentiation was initiated the following day (day 0) after verifying that 100% confluency was reached. Differentiation media was added daily according to the following order: […]7 (day 15 onward) similar to a previously published protocol developed by for rapid differentiation to cortical neurons. The components of the described media, Q1-7, are provided in Appendix 1. Cells were assessed for differentiation efficiency and cell death on a daily basis. On day 9, differentiated neurons were re-plated on either 96-well plates (destined for staining) or 12-well plates (destined for RNA extraction) that were coated with 15 μg/mL Poly-ornithine diluted in PBS (overnight incubation at 37° C.), followed by 1 μg/mL Laminin and 2 μg/mL Fibronectin diluted in PBS (overnight incubation at 37° C.): Neurons were first rinsed with pre-warmed PBS and 1 ml/well of Accutase was added for 35 minutes at 37° C., 5% CO2. DNAse1 (0.5 mg/mL) was then added for 10 additional minutes. 3 ml of pre-warmed Neurobasal media was added to each well and neurons were gently collected using a 5 ml […]. Wells were then verified for the presence of any remaining neurons. Neurons were spun down and resuspended in Q6 media. Neurons were seeded at a density of 150,000 cells/cm^2 placed back at 37° C. Following four hours of incubation, media was changed to Q6 media (150 μl per 96-well and 1 ml per 12-well). […] For dendritic arborization analysis, pre/post-synaptic markers and colocalization analysis; α-Syn, PSD95 and MAP2 primary antibodies were used. Following washes, fluorophore-coupled secondary antibodies were incubated in the blocking solution for 1 hour at room temperature. The cells were counter-stained with 4',6-diamidino-2-phenylindole (DAPI) for nuclei detection for 15 minutes at room temperature followed by washes with PBS. Imaging was performed using Nikon Spinning Disk Confocal microscope. For imaging of pre- and post-synaptic markers, images were acquired with a 100× objective in z-stacks. For dendritic arborization analysis, images were acquired with a 20× objective in z-stacks. For imaging of dendritic spines, during culture treatment described in materials and methods, cells were infected at Day 20 with human syn-GFP or mKate virus and stained for GFP or mKate. Cells were fixed as described at day 35 and stained with antibodies against GFP or mKate respectively. Images were acquired using the Nikon Confocal Alit with a 60× objective and a 2× digital zoom in z-stacks and using the Nikon spinning disk Microscope with a 100× objective in z-stacks. Neuronal and synaptic morphology was assessed using the Neurolucida software, pre- and post-synaptic marker analysis was performed using CellProfiler and total dendritic length was measured using Fiji software. Immunohistochemical examination was carried out on the induced neuronal cells.

[2] = system: iPSC-derived cortical neurons; test: Dendritic spine length analysis, confocal imaging; type: cell-based, human
Method: as §1, with “FIG. 8. Average dendritic spine length. Dendritic spine length was analyzed using confocal microscopy in samples treated with Bupropion. For imaging of dendritic spines, images were acquired using the Nikon Confocal A1R with a 60× objective and a 2× digital zoom in z-stacks. Analysis was performed using Neurolucida software. FIGS. 9A-9B. Average dendritic spine length in specific spine types. […] For imaging of dendritic spines, images were acquired using the Nikon Confocal A1R with a 60× objective and a 2× digital zoom in z-stacks. Analysis was performed using Neurolucida software. iPSC differentiation” for “iPSC differentiation”, “with PBS. […] Neuronal and” for “with PBS. Imaging was performed using Nikon Spinning Disk Confocal microscope. For imaging of pre- and post-synaptic markers, images were acquired with a 100× objective in z-stacks. For dendritic arborization analysis, images were acquired with a 20× objective in z-stacks. For imaging of dendritic spines, during culture treatment described in materials and methods, cells were infected at Day 20 with human syn-GFP or mKate virus and stained for GFP or mKate. Cells were fixed as described at day 35 and stained with antibodies against GFP or mKate respectively. Images were acquired using the Nikon Confocal Alit with a 60× objective and a 2× digital zoom in z-stacks and using the Nikon spinning disk Microscope with a 100× objective in z-stacks. Neuronal and”, “Fiji software.” for “Fiji software. Immunohistochemical examination was carried out on the induced neuronal cells.”

CC(NC(C)(C)C)C(=O)c1cccc(Cl)c1 (stereo not drawn) [Bupropion, 3-Chloro-N-tert-butyl-β-keto-α-methylphenethylamin]
density of post-synaptic terminals (PSD95 puncta), responders vs non-responders ([1]; after treatment): increase in density | intact synapses, responders vs non-responders ([1]; after treatment): increase | size of PSD95 puncta (perimeter), responders vs non-responders ([1]; at baseline and after treatment): reduced | levels of pre-synaptic terminals (Synapsin puncta), responders vs non-responders ([1]; both before and after treatment): significantly higher | pre-synaptic terminals (Synapsin puncta density), following treatment ([1]; both responders and non-responders): increase | Synapsin puncta perimeter size, effect of treatment ([1]; cells from non-responders): reduction in puncta perimeter size | Synapsin puncta perimeter size, effect of treatment ([1]; cells from responders): increase in puncta perimeter size | intact synapses (colocalization of pre- and post-synaptic terminals), treated vs untreated ([1]; neurons from non-responders): increased intact synapses | density of post-synaptic terminals (distance between PSD95 puncta), after vs before treatment ([1]; neurons from responders, 7 days after treatment): significantly increased | intact synapses (colocalization of pre- and post-synaptic terminals), treated vs untreated ([1]; neurons from responders): increased intact synapses | size of PSD95 puncta (perimeter), effect of treatment ([1]; responders and non-responders): no significant effect | total dendritic spine length (average), after treatment ([2]; cells derived from non-responders): no difference | total dendritic spine length (average), after treatment ([2]; cells derived from responders): significant increase | specific spine types (mushroom, stubby, filopodia, thin), after treatment ([2]; cells from non-responders): increase in the number of stubby spines | specific spine types (mushroom, stubby, filopodia, thin), after treatment ([2]; responder's cells): significant increase in the number of mushroom, stubby and thin spines
